Assay results published in patent US20230098332A1, “HETEROCYCLIC DERIVATIVES AS TRMP8 ANTAGONISTS” (Givaudan SA, priority 2020, published 2023).

How the values were obtained:
hTRPM8 = target: T1, hTRPM8 (Homo sapiens, UniProt Q7Z2W7); assay: Assay on TRPM8 modulators: calcium imaging (Fluo-4, Flexstation) in HEK293 cell line stably expressing hTRPM8; format: cell-based; settings: TRPM8 agonist activity, calcium influx, HEK293 stably expressing hTRPM8, sigmoidal dose-response fit
T1 construct: expressed in transfected cells
T1 sequence (Q7Z2W7 whole entry): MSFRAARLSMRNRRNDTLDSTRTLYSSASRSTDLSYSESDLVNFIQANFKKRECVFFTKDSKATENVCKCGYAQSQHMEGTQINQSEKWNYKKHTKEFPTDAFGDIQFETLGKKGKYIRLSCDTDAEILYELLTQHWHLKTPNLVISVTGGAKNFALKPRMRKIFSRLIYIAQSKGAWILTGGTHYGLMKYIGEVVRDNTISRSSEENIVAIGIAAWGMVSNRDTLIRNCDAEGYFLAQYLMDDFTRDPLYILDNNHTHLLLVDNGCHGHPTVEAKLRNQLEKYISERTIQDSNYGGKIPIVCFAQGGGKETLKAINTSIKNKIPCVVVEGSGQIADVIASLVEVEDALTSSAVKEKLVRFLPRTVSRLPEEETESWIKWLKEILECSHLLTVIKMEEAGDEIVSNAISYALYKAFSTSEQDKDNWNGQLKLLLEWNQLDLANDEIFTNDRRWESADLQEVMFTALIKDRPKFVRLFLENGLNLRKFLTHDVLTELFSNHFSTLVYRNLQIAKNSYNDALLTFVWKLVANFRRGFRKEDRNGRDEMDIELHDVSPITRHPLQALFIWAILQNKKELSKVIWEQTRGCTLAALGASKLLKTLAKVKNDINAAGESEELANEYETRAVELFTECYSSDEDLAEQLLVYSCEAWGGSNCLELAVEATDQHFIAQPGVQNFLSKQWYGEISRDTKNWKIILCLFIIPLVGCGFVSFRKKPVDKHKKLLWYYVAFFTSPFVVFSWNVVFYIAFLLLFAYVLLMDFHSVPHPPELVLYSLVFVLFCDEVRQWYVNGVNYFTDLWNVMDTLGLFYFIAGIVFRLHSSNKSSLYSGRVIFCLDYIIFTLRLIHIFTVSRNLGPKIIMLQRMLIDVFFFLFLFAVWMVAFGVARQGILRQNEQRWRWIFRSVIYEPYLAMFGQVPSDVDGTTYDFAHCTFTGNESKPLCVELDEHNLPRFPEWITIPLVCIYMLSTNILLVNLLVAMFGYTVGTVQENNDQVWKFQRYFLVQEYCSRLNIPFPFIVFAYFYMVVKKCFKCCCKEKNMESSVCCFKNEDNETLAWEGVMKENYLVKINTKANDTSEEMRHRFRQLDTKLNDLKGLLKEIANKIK
How it was run: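 Calcium influx monitored by Fluo-4 (2.7 μM with […] probenecid, 1 h 37 °C loading) in HEK293 cells stably expressing hTRPM8, in HEPES buffer pH 7.4 with 2 mM CaCl2. Fluorescence read 15 s before and 105 s after adding serial compound dilutions. Maximal activation relative to solvent and 31.6 μM menthol; EC50 from sigmoidal fit.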

[1] = system: trained group of panelists; assay: Sensory studies in aqueous solution (trained panelists, cooling in the mouth); format: in vivo, human; settings: 40 ppm in aqueous solution, 20 mL swilled in the mouth for 60 seconds; for Cooling after 1 hour / Max. cooling: averaged panel score 0-10
Protocol: The compounds as listed below in Table 2 were dissolved at a concentration of 1 wt-% in propylene glycol. These solutions were then dispensed in appropriate quantities into deionized water containing 0.5 wt-% Poloxamer 407 (which is a hydrophilic non-ionic surfactant, e.g., commercially available from SigmaAldrich) and 0.25 wt-% Cremaphor® RH40 (obtained from BASF) as solubilizer, to obtain the desired final concentration of 40 ppm (parts per million) of the respective compound.
A trained group of panelists evaluated the aqueous solutions containing test compound by swilling 20 mL of the solution in the mouth for 60 seconds, followed by spitting, without rinsing the mouth afterwards for the duration of the evaluation. Panelists evaluated and recorded the cooling performance as well as other sensorial and organoleptic attributes at different timepoints over a period of two hours. Cooling performance was rated on a scale from 0 to 10 with 0 being no effect and 10 being freezing. Scores were averaged for all panelists and the cooling intensity qualified as “N” for “none” (score of 0), “L” for “low” (score above 0, up to 1), “M” for “medium” (score above 1, up to 4), “S” for “strong” (score above 4, up to 8) and “E” for “extreme” (score above 8), which are provided in Table 2.

[2] = system: trained group of panelists; assay: Sensory studies in model dentifrice (trained panelists, cooling in the mouth); format: in vivo, human; settings: 100 ppm in model unflavored dentifrice, brushing with 1 g for 60 seconds; for Cooling after 1 hour / Max. cooling: averaged panel score 0-10
Protocol: The compounds listed in Table 3 were dissolved at a concentration of 1 wt-% in propylene glycol. These solutions were then dispersed in appropriate quantities to obtain the desired final concentration of 100 ppm (parts per million) of the test compound into a model, unflavored dentifrice, the formula of which is given below (ingredients obtained from the suppliers respectively indicated in parenthesis).
A trained group of panelists evaluated the dentifrice containing a compound of formula (I), by brushing their teeth with 1 g of the dentifrice using a toothbrush for 60 seconds, followed by spitting, without rinsing the mouth afterwards for the duration of the evaluation. Panelists evaluated and recorded the cooling performance as well as other sensorial and organoleptic attributes at different timepoints over a period of two hours. Cooling performance was rated on a scale from 0 to 10 with 0 being no effect and 10 being freezing. Scores were averaged for all panelists and the cooling intensity qualified as “N” for “none” (score of 0), “L” for “low” (score above 0, up to 1), “M” for “medium” (score above 1, up to 4), “S” for “strong” (score above 4, up to 8) and “E” for “extreme” (score above 8), which are summarized below in Table 3.

| Compound | EC50 (hTRPM8) | Time of max. cooling [1] | Cooling after 1 hour [1] | Max. cooling [1] | Time of max. cooling [2] | Cooling after 1 hour [2] | Max. cooling [2] |
| --- | --- | --- | --- | --- | --- | --- | --- |
| Cc1cc(C)c(OCCN2CCN(C)CC2)c(Cc2ccccc2C#N)c1.Cl [compound 118, 2-(3,5-dimethyl-2-(2-(4-methylpiperazin-1-yl)ethoxy)benzyl)benzonitrile hydrochloride] | < 0.05 µM | 20 min | S (“S” for “strong” (score above 4, up to 8)) | S (“S” for “strong” (score above 4, up to 8)) | 30 min | M (“M” for “medium” (score above 1, up to 4)) | M (“M” for “medium” (score above 1, up to 4)) |
| Cc1cc(C)c(OCCN2CCOCC2)c(Cc2ccccc2C#N)c1 [compound 122, 2-(3,5-dimethyl-2-(2-morpholinoethoxy)benzyl)benzonitrile] | < 0.05 µM | 10 min | M (“M” for “medium” (score above 1, up to 4)) | S (“S” for “strong” (score above 4, up to 8)) | 10 min | M (“M” for “medium” (score above 1, up to 4)) | S (“S” for “strong” (score above 4, up to 8)) |
| Cc1ccc(OCCN2CCN(C)CC2)c(Cc2ccccc2C#N)c1.Cl.Cl [compound 130, 2-(5-methyl-2-(2-(4-methylpiperazin-1-yl)ethoxy)benzyl)benzonitrile dihydrochloride] |  | 30 min | S (“S” for “strong” (score above 4, up to 8)) | S (“S” for “strong” (score above 4, up to 8)) | 30 min | M (“M” for “medium” (score above 1, up to 4)) | M (“M” for “medium” (score above 1, up to 4)) |

Now from value to compound, other results behind:

| EC50 (hTRPM8) | Compound | Time of max. cooling [1] | Cooling after 1 hour [1] | Max. cooling [1] | Time of max. cooling [2] | Cooling after 1 hour [2] | Max. cooling [2] |
| --- | --- | --- | --- | --- | --- | --- | --- |
| < 0.05 µM | Cc1cc(C)c(CCCN2CCOCC2)c(Oc2ccccc2C#N)c1 [compound 125, 2-(3,5-dimethyl-2-(3-morpholinopropyl)phenoxy)benzonitrile] | 10 min | M (“M” for “medium” (score above 1, up to 4)) | M (“M” for “medium” (score above 1, up to 4)) | 30 min | M (“M” for “medium” (score above 1, up to 4)) | M (“M” for “medium” (score above 1, up to 4)) |
| 0.05 to 0.3 µM | Cc1ccc(N(C)CCN2CCN(C)CC2)c(Cc2ccccc2)c1 [compound 137, 2-benzyl-N,4-dimethyl-N-(2-(4-methylpiperazin-1-yl)ethyl)aniline] | 10 min | M (“M” for “medium” (score above 1, up to 4)) | S (“S” for “strong” (score above 4, up to 8)) | 10 min | L (“L” for “low” (score above 0, up to 1)) | M (“M” for “medium” (score above 1, up to 4)) |
| 0.05 to 0.3 µM | Cc1cc(C)c(OCCN2CCOCC2)c(Cc2c(F)cccc2F)c1 [compound 149, 4-(2-(2-(2,6-difluorobenzyl)-4,6-dimethylphenoxy)ethyl)morpholine] | 20 min | M (“M” for “medium” (score above 1, up to 4)) | S (“S” for “strong” (score above 4, up to 8)) | 30 min | M (“M” for “medium” (score above 1, up to 4)) | M (“M” for “medium” (score above 1, up to 4)) |
| 0.05 to 0.3 µM | Cc1cc(C)c(OCCN2CCOCC2)c(Cc2ccccc2F)c1 [compound 153, 4-(2-(2-(2-fluorobenzyl)-4,6-dimethylphenoxy)ethyl)morpholine] | 20 min | M (“M” for “medium” (score above 1, up to 4)) | M (“M” for “medium” (score above 1, up to 4)) | 5 min | L (“L” for “low” (score above 0, up to 1)) | M (“M” for “medium” (score above 1, up to 4)) |
